Measured values taken from PubChem BioAssay AID1033 (Sanford-Burnham Center for Chemical Genomics, 2008).
Active and inactive are the calls of the source. No rule for the calls is given here.

Target: Chaperone protein DnaK (Escherichia coli (strain K12)) (UniProt P0A6Y8)
Test: binders of DnaK substrate-binding domain, biophysical, NMR, chaperone (AID 1033)
Conditions: Purified DnaK SBD, NMR ligand binding

Sequence of Chaperone protein DnaK (Escherichia coli (strain K12)) (P0A6Y8 whole entry, looked up, the tested form may be a part): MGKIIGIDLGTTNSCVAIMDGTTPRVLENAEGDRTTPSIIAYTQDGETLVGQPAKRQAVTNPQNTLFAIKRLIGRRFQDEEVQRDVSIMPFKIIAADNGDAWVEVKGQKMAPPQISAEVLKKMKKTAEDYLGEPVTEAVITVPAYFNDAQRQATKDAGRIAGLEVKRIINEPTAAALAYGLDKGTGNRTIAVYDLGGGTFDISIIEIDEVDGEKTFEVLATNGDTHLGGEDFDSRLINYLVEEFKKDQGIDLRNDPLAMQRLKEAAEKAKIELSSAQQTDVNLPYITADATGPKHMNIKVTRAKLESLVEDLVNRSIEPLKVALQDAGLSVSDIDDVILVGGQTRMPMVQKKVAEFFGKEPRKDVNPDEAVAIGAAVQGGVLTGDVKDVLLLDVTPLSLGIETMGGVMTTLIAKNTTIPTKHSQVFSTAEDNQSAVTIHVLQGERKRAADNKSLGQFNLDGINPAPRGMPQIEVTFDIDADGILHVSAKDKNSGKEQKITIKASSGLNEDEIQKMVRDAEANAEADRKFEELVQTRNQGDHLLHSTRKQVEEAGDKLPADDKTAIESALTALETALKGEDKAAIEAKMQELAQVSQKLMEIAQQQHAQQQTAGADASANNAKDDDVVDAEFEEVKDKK

| Structure (SMILES) | Kd |
| --- | --- |
| CC(=O)O[C@H]1C[C@@H](OC(C)=O)C(C)(C)C2C[C@@H](O)[C@]3(C)C(CC[C@@]4(C)[C@H](c5ccoc5)OC(=O)[C@H]5O[C@]543)[C@]21C (some centres not stated) | > 4 mM (inactive) |
| O=c1cc(-c2ccccc2)oc2cc(O)c(O)c(O)c12 | > 4 mM (inactive) |
| COc1cc(OC)c2c(=O)c(OC)c(-c3ccc(OC)c(OC)c3)oc2c1 | > 4 mM (inactive) |
| COc1ccc(Cl)cc1-c1nc(-c2ccncc2)no1 | > 4 mM (inactive) |
| O=C(O)C1=C[C@@H](O)[C@@H](O)[C@H](O)C1 | > 4 mM (inactive) |
| O=C(NC1=NCCS1)c1cccc(F)c1 | > 4 mM (inactive) |
| O=C(/C=C1\SC(=O)NC1=O)NCc1ccccc1 | > 4 mM (inactive) |
| CSc1nc(C)cc(Oc2ccc(=O)n(C)n2)n1 | > 4 mM (inactive) |
| COC(=O)CCC(C)C1CCC2C3CCC4C[C@H](O)CC[C@]4(C)C3C[C@H](O)[C@]12C (some centres not stated) | > 4 mM (inactive) |
| O=C(Nc1ccc(N2CCOCC2)cc1)c1cnsn1 | > 4 mM (inactive) |
| CC1(C)C2CC(=O)[C@]3(C)C(CC[C@@]4(C)[C@H](c5ccoc5)OC(=O)C5OC543)[C@@]2(C)[C@@H](O)C[C@H]1O (some centres not stated) | > 4 mM (inactive) |
| COc1ccc2c3c([nH]c2c1)C(C)=NCC3 | > 4 mM (inactive) |
| Nc1oncc1-c1ccccn1 | > 4 mM (inactive) |
| C[N+](C)(C)CC(=O)[O-] | > 4 mM (inactive) |
| O=C(Nc1cccnc1)c1cccs1 | > 4 mM (inactive) |
| CSc1nnc2c(n1)OC(C)=Nc1ccccc1-2 | > 4 mM (inactive) |
| Cc1ccc(CO)o1 | > 4 mM (inactive) |
| NC1CCN(Cc2ccccc2)CC1 | > 4 mM (inactive) |
| COc1ccc(-c2coc3cc(OC)cc(OC)c3c2=O)cc1 | > 4 mM (inactive) |

| Structure (SMILES) | Kd |
| --- | --- |
| O=C(c1cc(-c2ccccc2)on1)N1CCCC1 | > 4 mM (inactive) |
| O=C(O)c1ccccc1C(=O)Nc1ccccc1 | > 4 mM (inactive) |
| O=CN1CCN(C2CC(=O)N(c3ccccc3)C2=O)CC1 (configuration not stated) | > 4 mM (inactive) |
| CC(=O)Nc1ccc(NC(C)=O)cc1 | > 4 mM (inactive) |
| CC(C)Nc1nc2n(c(=O)n1)CCN2C(C)C | > 4 mM (inactive) |
| CCOc1cc(S(=O)(=O)n2nc(C)cc2C)ccc1F | > 4 mM (inactive) |
| C[C@@H]1O[C@@H](O[C@H]2C[C@@H](O)[C@]3(CO)C4C(CC[C@]3(O)C2)[C@@]2(O)CC[C@H](C3=CC(=O)OC3)[C@@]2(C)C[C@H]4O)[C@H](O)[C@H](O)[C@H]1O (some centres not stated) | > 4 mM (inactive) |
| c1ccc(NCc2nc(-c3ccccc3)no2)cc1 | > 4 mM (inactive) |
| Cc1ccc(C)c(S(=O)(=O)NCc2cccnc2)c1 | > 4 mM (inactive) |
| CN1CCC=C(C(=O)O)C1 | > 4 mM (inactive) |
| Cc1nc2ccc(F)cc2cc1C(=O)NCc1ccco1 | > 4 mM (inactive) |
| CC1=C(/C=C/C(C)=C/C=C/C(C)=C/C=C/C=C(C)/C=C/C=C(C)/C=C/C(=O)[C@]2(C)C[C@@H](O)CC2(C)C)C(C)(C)C[C@H](O)C1 | > 4 mM (inactive) |
| Cn1c(CO)nc2ccccc21 | > 4 mM (inactive) |
| C(=N\c1ncn[nH]1)/c1cccs1 | > 4 mM (inactive) |
| COc1ccc(-c2coc3c(OC)c(OC)cc(OC)c3c2=O)cc1 | > 4 mM (inactive) |
| Cc1ccc(-n2[nH]c(C)cc2=O)cc1 | > 4 mM (inactive) |
| COC(=O)[C@]1(C)CC[C@]2(C)CC[C@]3(C)C4=CCc5c(cc(O)c(O)c5C)[C@]4(C)CC[C@@]3(C)C2C1 (some centres not stated) | > 4 mM (inactive) |
| O=C(c1ccc(F)cc1)N1CCN(c2ncccn2)CC1 | > 4 mM (inactive) |
| N#Cc1cnc(N2CCCCC2)nc1N | > 4 mM (inactive) |

| Structure (SMILES) | Kd |
| --- | --- |
| N#CCc1nc2ccccc2s1 | > 4 mM (inactive) |
| COc1cc2c(cc1OC)C(C)NCC2 (configuration not stated) | > 4 mM (inactive) |
| CN1C(=O)N(C)C2NC(=O)NC21 (configuration not stated) | > 4 mM (inactive) |
| CC(C)=CCCC1(C)C=Cc2c(O)c3c(c(CC=C(C)C)c2O1)OC12C(=CC4CC1C(C)(C)OC2(C/C=C(/C)C(=O)O)C4O)C3=O (configuration not stated) | > 4 mM (inactive) |
| C#CCCCCCCCCCCCC(=O)CC(O)COC(C)=O (configuration not stated) | > 4 mM (inactive) |
| N#Cc1cc(-c2ccccc2)oc1N | > 4 mM (inactive) |
| CS(=O)(=O)N1CCN(C(=O)Cc2cccs2)CC1 | > 4 mM (inactive) |
| O=C(C1CCNCC1)N1CCCCCC1 | > 4 mM (inactive) |
| CCS(=O)(=O)N1CCN(c2ccccc2F)CC1 | > 4 mM (inactive) |
| OCCCc1nc2ccccc2[nH]1 | > 4 mM (inactive) |
| O=C(c1cccnc1Cl)N1CCOCC1 | > 4 mM (inactive) |
| Cc1cc(C)n(-c2cccc3cccnc23)n1 | > 4 mM (inactive) |
| Cc1cc(C(=O)Nc2sc(C)c(C)c2C#N)c(C)o1 | > 4 mM (inactive) |
| Cc1cc(C)n(-c2ccc(Cl)nn2)n1 | > 4 mM (inactive) |
| Cc1ccc(-c2nc(-c3cccnc3)no2)c(C)c1 | > 4 mM (inactive) |
| COc1cc(C(=S)N2CCC(C(N)=O)CC2)ccc1O | > 4 mM (inactive) |
| COC(=O)Nc1nc2c(C)cccc2s1 | > 4 mM (inactive) |
| CNC(=O)c1ccccc1-c1ccccc1 | > 4 mM (inactive) |
| Cn1c(SCC(=O)NCCO)nc2ccccc2c1=O | > 4 mM (inactive) |
